Reference: ChEMBL document CHEMBL1909046, “DrugMatrix in vitro pharmacology data”

Columns and labels:
[1] = target: T1, Alpha-1D adrenergic receptor (Homo sapiens, UniProt P25100); format: cell membranes, HEK293, Membrane; conditions: hek293; further: in other assays of this panel Not Active means under 50% inhibition at 10 µM
T1 sequence (P25100 whole entry): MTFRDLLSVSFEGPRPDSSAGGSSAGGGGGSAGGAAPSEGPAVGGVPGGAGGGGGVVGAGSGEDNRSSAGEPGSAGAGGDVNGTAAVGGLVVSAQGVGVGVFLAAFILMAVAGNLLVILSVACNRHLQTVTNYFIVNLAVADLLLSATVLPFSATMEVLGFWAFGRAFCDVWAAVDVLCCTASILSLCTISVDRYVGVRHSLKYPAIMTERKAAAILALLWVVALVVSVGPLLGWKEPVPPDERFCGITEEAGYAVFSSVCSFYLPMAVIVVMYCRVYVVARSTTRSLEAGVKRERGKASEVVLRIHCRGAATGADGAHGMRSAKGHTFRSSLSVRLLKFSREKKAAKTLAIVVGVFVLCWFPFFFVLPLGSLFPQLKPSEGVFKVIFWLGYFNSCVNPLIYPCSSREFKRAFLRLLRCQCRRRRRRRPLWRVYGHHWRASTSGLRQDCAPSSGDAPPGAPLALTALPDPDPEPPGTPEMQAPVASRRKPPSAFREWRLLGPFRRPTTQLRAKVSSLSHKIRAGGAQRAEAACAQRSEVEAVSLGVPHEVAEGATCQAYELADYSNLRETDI

[2] = target: Mitogen-activated protein kinase 3 (Homo sapiens, UniProt P27361); test: DRUGMATRIX: Protein Serine/Threonine Kinase, ERK1 enzyme inhibition (substrate: Myelin Basic Protein); design: species or system Escherichia coli; conditions: Not Active = under 50% inhibition at 10 µM
Mitogen-activated protein kinase 3, sequence (P27361 whole entry): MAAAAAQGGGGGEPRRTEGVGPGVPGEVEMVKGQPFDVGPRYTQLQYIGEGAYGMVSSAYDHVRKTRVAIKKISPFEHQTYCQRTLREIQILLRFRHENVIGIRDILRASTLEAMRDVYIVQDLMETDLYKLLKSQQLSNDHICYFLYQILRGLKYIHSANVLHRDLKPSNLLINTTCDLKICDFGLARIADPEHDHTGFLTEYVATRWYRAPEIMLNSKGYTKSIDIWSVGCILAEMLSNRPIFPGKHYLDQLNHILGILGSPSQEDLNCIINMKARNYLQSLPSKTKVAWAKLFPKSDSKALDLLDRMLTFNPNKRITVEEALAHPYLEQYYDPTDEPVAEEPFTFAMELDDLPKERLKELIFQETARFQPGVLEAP

[3] = target: T2, C-X-C chemokine receptor type 1 (Homo sapiens, UniProt P25024); further: in other assays of this panel Not Active means under 50% inhibition at 10 µM
T2 sequence (P25024 whole entry): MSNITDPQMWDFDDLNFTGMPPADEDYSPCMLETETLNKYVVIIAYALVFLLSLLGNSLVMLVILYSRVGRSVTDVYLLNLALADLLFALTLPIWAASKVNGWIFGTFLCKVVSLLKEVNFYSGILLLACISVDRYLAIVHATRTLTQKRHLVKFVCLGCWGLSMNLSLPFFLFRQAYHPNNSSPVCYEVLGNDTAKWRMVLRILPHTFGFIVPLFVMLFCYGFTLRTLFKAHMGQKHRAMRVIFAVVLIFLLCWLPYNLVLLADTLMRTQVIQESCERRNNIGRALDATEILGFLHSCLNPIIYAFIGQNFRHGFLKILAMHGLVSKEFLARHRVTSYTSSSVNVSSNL

[4] = target: T3, Leukotriene C4 synthase (Cavia porcellus, UniProt A6XA80); format: tissue-based, Lung;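 further: enzyme inhibition assay of leukotriene C4 synthase, using LTA4 as the substrate; in other assays of this panel Not Active means under 50% inhibition at 10 µM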
T3 sequence (A6XA80 whole entry): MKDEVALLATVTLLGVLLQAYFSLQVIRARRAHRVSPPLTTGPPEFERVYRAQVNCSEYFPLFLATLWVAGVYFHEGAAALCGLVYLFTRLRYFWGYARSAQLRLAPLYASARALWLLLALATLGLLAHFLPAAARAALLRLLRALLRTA

[5] = target: Tyrosine-protein kinase Lck (Homo sapiens, UniProt P06239); test: DRUGMATRIX: Protein Tyrosine Kinase, LCK enzyme inhibition (substrate: Poly(Glu:Tyr)); format: cell-based, Insect cells; conditions: insect cells; Not Active = under 50% inhibition at 10 µM
Tyrosine-protein kinase Lck, sequence (P06239 whole entry): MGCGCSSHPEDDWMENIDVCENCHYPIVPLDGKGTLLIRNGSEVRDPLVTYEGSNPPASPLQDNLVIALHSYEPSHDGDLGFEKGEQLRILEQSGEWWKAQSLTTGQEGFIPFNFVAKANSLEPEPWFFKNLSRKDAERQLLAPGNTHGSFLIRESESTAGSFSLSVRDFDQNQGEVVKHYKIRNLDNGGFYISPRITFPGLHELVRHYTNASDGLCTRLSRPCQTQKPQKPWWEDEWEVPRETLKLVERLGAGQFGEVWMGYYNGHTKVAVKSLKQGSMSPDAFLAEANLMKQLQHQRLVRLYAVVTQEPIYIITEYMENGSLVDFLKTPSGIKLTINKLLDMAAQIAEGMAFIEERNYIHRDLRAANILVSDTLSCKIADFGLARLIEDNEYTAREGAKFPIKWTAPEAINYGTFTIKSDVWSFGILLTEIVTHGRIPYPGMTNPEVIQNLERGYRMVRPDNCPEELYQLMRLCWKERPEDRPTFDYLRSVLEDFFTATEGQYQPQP

[6] = target: T4, C-C chemokine receptor type 4 (Homo sapiens, UniProt P51679); format: cell membranes, Membrane; conditions: chem-1; further: in other assays of this panel Not Active means under 50% inhibition at 10 µM
T4 sequence (P51679 whole entry): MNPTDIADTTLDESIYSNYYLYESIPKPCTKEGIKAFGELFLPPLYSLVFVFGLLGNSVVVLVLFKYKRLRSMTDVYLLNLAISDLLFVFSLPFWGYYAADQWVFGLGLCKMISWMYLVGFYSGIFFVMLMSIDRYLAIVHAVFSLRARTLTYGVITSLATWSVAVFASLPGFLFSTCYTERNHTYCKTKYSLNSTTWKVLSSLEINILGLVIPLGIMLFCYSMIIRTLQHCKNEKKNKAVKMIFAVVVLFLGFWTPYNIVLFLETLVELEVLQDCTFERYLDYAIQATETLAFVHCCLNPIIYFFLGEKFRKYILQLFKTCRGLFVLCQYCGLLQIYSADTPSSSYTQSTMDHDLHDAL

[7] = target: T5, Substance-K receptor (Homo sapiens, UniProt P21452); format: cell membranes, CHO, Membrane; conditions: cho; further: in other assays of this panel Not Active means under 50% inhibition at 10 µM
T5 sequence (P21452 whole entry): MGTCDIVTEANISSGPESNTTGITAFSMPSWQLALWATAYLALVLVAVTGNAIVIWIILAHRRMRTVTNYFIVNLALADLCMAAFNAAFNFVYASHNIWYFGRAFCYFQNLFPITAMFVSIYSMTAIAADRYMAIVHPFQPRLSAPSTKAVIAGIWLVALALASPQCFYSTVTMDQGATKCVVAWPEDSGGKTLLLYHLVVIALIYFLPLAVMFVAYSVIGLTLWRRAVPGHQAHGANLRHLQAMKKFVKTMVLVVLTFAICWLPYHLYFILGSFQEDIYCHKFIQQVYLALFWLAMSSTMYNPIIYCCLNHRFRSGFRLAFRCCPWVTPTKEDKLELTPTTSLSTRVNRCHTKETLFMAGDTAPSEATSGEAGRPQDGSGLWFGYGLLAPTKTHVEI

ZIRCONIUM(IV) CHLORIDE
Not Active: IC50 [1] | Ki [1] | IC50 [2] | Ki [2] | IC50 [3] | Ki [3] | IC50 [4] | Ki [4] | IC50 [5] | Ki [5] | IC50 [6] | Ki [6] | IC50 [7] | Ki [7]

CN(C)C(=O)C(CCN1CCC(O)(c2ccc(Cl)cc2)CC1)(c1ccccc1)c1ccccc1 [LOPERAMIDE]
Not Active: IC50 [1] | IC50 [2] | IC50 [3] | IC50 [4] | IC50 [5] | IC50 [6] | IC50 [7]

O=C(O)c1ccccc1O [SALICYLIC ACID]
Not Active: IC50 [1] | IC50 [2] | IC50 [3] | IC50 [4] | IC50 [5] | IC50 [6] | IC50 [7]
